Experimental data as given in US5691348A, “Pyridyl imidazole derivatives and processes for the preparation thereof” (Daewoo Electronics Co., Ltd., priority 1994, dated 1997).

Legend:
renal hypertensive rat = assay: Blood pressure lowering effect in renal hypertension; type: in vivo, Sprague-Dawley rat; settings: Amount 3 mg; intravenous or oral (not specified)
Excerpt: (§1) To induce renal hypertension, left renal artery of 4 week-old male Sprague-Dawley rat (from The Korea Research Institute of Chemical Technology) was ligated. The rat was anesthetized with ether and the surgical region on the left abdomen of the rat was shaved, disinfected, and then incised about 1 cm vertically. The renal artery near abdominal aorta was isolated carefully from surrounding tissues and veins, and then ligated completely with a suture (4/0 sterile surgical silk). The muscular strata and skin of the surgical area were sutured with a suture (4/0 sterile surgical silk). The surgical region was disinfected to prevent infection and thereafter, 200 to 250 mg/kg/day of cephazolin sodium was injected intramuscularly for 2 days. 6 to 8 days after the ligation, rats showing systolic pressure of more than 180 mmHg were selected for renal hypertension test. The blood pressure was determined by a tail-cuff method from the tail under unanesthetized condition (Gerold, M. et al., Arzneimittel-Forsch., 18, 1285(1968)).
(§2) Each of the compounds to be tested was administered intravenously or orally into the renal hypertensive rat. The blood pressure of the rat was determined by direct method (Chiu, A. T. et al., J. Pharmacol. Exp. Ther., 250, 867(1989)) using a catheter. The rat was anesthetized with ketamine hydrochloride (125 mg/kg, i.p.) and a catheter was filled with saline and inserted into a carotid artery and […]. The surgical area was sutured with a metal clip. The rat was relaxed at least 3 hours and the catheter in the carotid artery was adapted to an isotec pressure transducer to determine the blood pressure and heart rate with a physiograph (Linearcorder WR3310). After the blood pressure was stabilized, the test compound was administered intravenously or orally. For intravenous administration, the administered volume and washing volume were 1.0 ml/kg and 0.2 ml, respectively. The blood pressure and heart rate were measured in regular intervals up to 24 hours after the administration of the test compound and compared with those measured after the administration of the control compound Losartan.
(§3) The test compound was dissolved in 0.05N KOH for intravenous administration and suspended in Tween 80 for oral administration.

renal hypertensive rats = assay: Duration of action in renal hypertensive rats; type: in vivo, Sprague-Dawley rat; settings: 3 mg/kg oral
Excerpt: as §1, §2, §3
The compound of Example 1 and the Merck compound were tested using the hypertensive rats of test 2(i). 3 mg/kg of each compound was administered orally and blood pressure lowering effect with time was determined to measure the duration of action of the compounds.

unanesthetized dogs = assay: Blood pressure variation with time in unanesthetized dogs; type: in vivo, dog; settings: 1.0 mg, oral
Method: A number of dog was fed freely in a feeding room and those weighing 7 to 12 kg in good health were selected regardless of their gender.
The test dog was anesthetized with 30 mg/kg of pentobarbital sodium by intravenous injection and the left femoral artery and femoral vein were separated carefully. Silicone catheter, specially prepared and filled with saline treated with heparin (1,000 IU/ml), was cannulated into the blood vessels. After the surgery, the dog was constrained to measure the blood pressure continuously with Gould 2000 physiograph adapted to a Grass P23XL pressure transducer; and the heart rate was monitored with ECG/Biotacho amplifier. The dog was tested at least 2 days after the surgery.
10 mg/kg of furosemide was injected intramuscularly 18 hours (in case of intravenous injection, 2 hours) before the beginning of the test (administration of the test compound) to improve the activity of renin in blood plasma. After the injection of furosemide, neither food nor water was provided. […] The blood pressure and heart rate were measured up to 8 hours after the administration of each test compound.

Compound: CCCCc1nc2cc(-c3cccc[n+]3[O-])c(CO)nc2n1Cc1ccc(-c2ccccc2-c2nn[nH]n2)cc1 [Example 1, 2-Butyl-5-hydroxymethyl-6-(1-oxy-pyridin-2-yl)-3-[2'-(1H-tetrazol-5-yl)-biphenyl-4-ylmethyl]-3H-imidazo[4,5-b]pyridine]
- Maximum Blood Pressure Lowering Effect (renal hypertensive rat): -60%
- Maximum Blood Pressure Lowering Effect (renal hypertensive rats; 0 min): 0%
- Maximum Blood Pressure Lowering Effect (renal hypertensive rats; 10 min): -11%
- Maximum Blood Pressure Lowering Effect (renal hypertensive rats; 20 min): -19%
- Maximum Blood Pressure Lowering Effect (renal hypertensive rats; 30 min): -32%
- Maximum Blood Pressure Lowering Effect (renal hypertensive rats; 60 min): -48%
- Maximum Blood Pressure Lowering Effect (renal hypertensive rats; 90 min): -42%
- Maximum Blood Pressure Lowering Effect (renal hypertensive rats; 120 min): -44%
- Maximum Blood Pressure Lowering Effect (renal hypertensive rats; 240 min): -58%
- Maximum Blood Pressure Lowering Effect (renal hypertensive rats; 360 min): -60%
- Maximum Blood Pressure Lowering Effect (renal hypertensive rats; 1320 min): -48%
- Maximum Blood Pressure Lowering Effect (renal hypertensive rats; 1440 min): -49%
- duration of action compared with the Merck compound (renal hypertensive rats; renal hypertensive rats): far longer duration of action than the Merck compound
- Maximum Blood Pressure Lowering Effect (unanesthetized dogs; 0.5 hr): -17.5%
- Maximum Blood Pressure Lowering Effect (unanesthetized dogs; 1 hr): -21.4%
- Maximum Blood Pressure Lowering Effect (unanesthetized dogs; 2 hr): -23.6%
- Maximum Blood Pressure Lowering Effect (unanesthetized dogs; 4 hr): -24.8%
- Maximum Blood Pressure Lowering Effect (unanesthetized dogs; 6 hr): -21.7%
- Maximum Blood Pressure Lowering Effect (unanesthetized dogs; 8 hr): -13.2%
